Measurements published in patent US20250034216A1, “STEREOSELECTIVE COVALENT LIGANDS FOR ONCOGENIC AND IMMUNOLOGICAL PROTEINS” (The Scripps Research Institute, priority 2021, published 2025).

How the values were obtained:
Experiment in all cases: IA-DTB cysteine engagement
Assay type in all cases: binding
NELFCD_C169 = molecular target: T1, NELFCD_C169 (Homo sapiens, UniProt Q8IXH7); details: 22Rv1 cells, 20 μM probe, 1 h, relative to DMSO
T1 construct: endogenous in cells; host or cells: 22Rv1
Procedure, shortened: (§1)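 In-situ probe treatment of cells; lysate 2 mg/mL, IA-DTB 1 h RT; MeOH/CHCl3 precipitation, DTT/iodoacetamide, trypsin; streptavidin enrichment; TMT labeling, high-pH fractionation. Ratio = TMT reporter intensity / mean DMSO channels, median-normalized.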

LIMK1_C349 = molecular target: T2, LIMK1_C349 (Homo sapiens, UniProt P53667); details: 22Rv1 cells, relative to DMSO; for % engagement LIMK1_C349: 20 μM probe, 1 h; for % engagement LIMK1_349: 5 μM probe, 1 h (FIG. 5B)
T2 construct: endogenous in cells; host or cells: 22Rv1
Procedure, shortened: as §1

TMEM256-PLSCR3_C126 = molecular target: T3, TMEM256-PLSCR3_C126 (Homo sapiens, UniProt Q9NRY6); details: 22Rv1 cells, 20 μM probe, 1 h, relative to DMSO
T3 construct: endogenous in cells; host or cells: 22Rv1
Procedure, shortened: as §1

HSD11B2_C264 = molecular target: T4, HSD11B2_C264 (Homo sapiens, UniProt P80365); details: 22Rv1 cells, 20 μM probe, 1 h, relative to DMSO
T4 construct: endogenous in cells; host or cells: 22Rv1
T4 sequence (P80365 1-405): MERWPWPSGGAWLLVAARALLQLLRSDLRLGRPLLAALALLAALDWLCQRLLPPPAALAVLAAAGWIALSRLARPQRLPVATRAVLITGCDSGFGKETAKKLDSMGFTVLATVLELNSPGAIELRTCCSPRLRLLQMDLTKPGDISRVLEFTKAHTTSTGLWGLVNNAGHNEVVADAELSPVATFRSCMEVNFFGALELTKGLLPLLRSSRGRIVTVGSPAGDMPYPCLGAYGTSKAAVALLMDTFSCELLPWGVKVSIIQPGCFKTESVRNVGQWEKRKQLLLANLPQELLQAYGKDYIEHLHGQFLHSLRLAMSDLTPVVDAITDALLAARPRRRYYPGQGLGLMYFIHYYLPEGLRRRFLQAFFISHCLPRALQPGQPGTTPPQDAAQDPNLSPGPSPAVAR
Procedure, shortened: as §1

RAB39B_C23 = molecular target: T5, RAB39B_C23 (Homo sapiens, UniProt Q96DA2); details: 22Rv1 cells, 20 μM probe, 1 h, relative to DMSO
T5 construct: endogenous in cells; host or cells: 22Rv1
T5 sequence (Q96DA2 1-213): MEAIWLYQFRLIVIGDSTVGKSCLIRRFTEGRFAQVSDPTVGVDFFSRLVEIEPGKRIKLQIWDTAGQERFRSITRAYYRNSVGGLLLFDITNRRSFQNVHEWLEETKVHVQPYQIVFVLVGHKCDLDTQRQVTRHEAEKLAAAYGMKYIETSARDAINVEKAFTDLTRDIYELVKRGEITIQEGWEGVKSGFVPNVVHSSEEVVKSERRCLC
Procedure, shortened: as §1

STK11_C418 = molecular target: T6, STK11_C418 (Homo sapiens, UniProt Q15831); details: 22Rv1 cells, 20 μM probe, 1 h, relative to DMSO
T6 construct: endogenous in cells; host or cells: 22Rv1
T6 sequence (Q15831 1-433): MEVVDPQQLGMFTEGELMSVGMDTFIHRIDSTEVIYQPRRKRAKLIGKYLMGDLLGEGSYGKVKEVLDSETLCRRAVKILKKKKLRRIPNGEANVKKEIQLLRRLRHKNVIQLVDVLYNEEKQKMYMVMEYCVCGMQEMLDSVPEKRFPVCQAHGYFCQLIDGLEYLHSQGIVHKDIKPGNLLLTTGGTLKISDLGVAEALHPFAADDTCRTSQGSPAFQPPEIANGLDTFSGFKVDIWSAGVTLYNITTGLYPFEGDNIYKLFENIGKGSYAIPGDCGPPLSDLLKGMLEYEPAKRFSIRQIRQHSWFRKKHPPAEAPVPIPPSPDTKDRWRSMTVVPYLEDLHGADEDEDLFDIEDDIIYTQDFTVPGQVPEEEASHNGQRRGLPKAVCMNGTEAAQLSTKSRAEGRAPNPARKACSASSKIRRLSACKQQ
Procedure, shortened: as §1

T1 sequence (Q8IXH7 whole entry): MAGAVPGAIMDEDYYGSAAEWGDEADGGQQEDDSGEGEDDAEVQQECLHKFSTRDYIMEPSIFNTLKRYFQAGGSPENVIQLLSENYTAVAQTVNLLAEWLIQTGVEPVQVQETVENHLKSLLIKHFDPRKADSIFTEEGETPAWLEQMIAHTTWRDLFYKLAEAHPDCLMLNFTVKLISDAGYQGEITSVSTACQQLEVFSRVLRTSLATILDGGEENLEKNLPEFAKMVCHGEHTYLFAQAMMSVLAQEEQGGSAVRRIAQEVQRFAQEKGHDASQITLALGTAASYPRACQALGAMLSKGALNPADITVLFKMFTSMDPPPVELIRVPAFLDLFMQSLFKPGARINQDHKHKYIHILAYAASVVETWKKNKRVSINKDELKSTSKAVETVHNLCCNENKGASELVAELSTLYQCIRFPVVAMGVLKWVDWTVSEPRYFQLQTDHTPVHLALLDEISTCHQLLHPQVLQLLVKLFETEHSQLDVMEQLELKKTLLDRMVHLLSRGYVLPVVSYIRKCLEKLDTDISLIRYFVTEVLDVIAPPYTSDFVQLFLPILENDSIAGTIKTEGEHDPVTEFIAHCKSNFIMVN
T3 sequence (Q9NRY6 whole entry): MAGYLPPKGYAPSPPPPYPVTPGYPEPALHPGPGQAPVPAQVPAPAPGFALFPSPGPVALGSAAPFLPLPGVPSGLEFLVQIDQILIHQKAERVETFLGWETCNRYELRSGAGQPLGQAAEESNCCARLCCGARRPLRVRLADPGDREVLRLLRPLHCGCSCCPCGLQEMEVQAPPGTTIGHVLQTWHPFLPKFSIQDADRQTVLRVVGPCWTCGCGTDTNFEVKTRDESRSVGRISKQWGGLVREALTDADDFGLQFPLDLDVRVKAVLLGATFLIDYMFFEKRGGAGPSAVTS
T2 sequence (P53667 whole entry): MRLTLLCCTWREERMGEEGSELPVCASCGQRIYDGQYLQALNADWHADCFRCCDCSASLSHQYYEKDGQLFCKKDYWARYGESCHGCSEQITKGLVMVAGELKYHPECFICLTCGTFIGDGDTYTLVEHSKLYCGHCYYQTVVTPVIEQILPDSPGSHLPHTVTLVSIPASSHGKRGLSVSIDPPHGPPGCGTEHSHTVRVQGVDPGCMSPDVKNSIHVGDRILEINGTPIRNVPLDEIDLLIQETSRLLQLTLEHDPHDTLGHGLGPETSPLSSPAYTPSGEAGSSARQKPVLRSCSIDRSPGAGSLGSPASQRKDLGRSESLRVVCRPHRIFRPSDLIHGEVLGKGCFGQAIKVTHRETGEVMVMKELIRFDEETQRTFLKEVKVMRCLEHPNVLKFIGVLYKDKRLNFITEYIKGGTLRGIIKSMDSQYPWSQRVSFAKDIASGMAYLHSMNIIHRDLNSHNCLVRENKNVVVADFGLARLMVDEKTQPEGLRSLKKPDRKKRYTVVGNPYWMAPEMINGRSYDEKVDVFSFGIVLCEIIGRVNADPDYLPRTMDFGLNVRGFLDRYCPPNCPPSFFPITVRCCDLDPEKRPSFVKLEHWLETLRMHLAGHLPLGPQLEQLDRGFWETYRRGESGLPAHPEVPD

% engagement NELFCD_C169 (NELFCD_C169) [%]	% engagement LIMK1_C349 (LIMK1_C349) [%]	% engagement TMEM256-PLSCR3_C126 (TMEM256-PLSCR3_C126) [%]	% engagement HSD11B2_C264 (HSD11B2_C264) [%]	% engagement RAB39B_C23 (RAB39B_C23) [%]	% engagement STK11_C418 (STK11_C418) [%]	% engagement LIMK1_349 (LIMK1_C349) [%]	SMILES
51	45.25	81	30.5	24.5	83.5		C=CC(=O)N1C[C@@H](c2ccc(Br)cc2)[C@H]1C(=O)Nc1cccc2cccnc12 [MY-1A, (2S,3R)-1-acryloyl-3-(4-bromophenyl)-N-(quinolin-8-yl)azetidine-2-carboxamide]
41.75	93	86	22	18.5	66.5	90.88	C=CC(=O)N1C[C@H](c2ccc(Br)cc2)[C@@H]1C(=O)Nc1cccc2cccnc12 [MY-1B, (2R,3S)-1-acryloyl-3-(4-bromophenyl)-N-(quinolin-8-yl)azetidine-2-carboxamide]
40.75	21.5	58	23.5	−53	38		C=CC(=O)N1C[C@H](c2ccc(Br)cc2)[C@H]1C(=O)Nc1cccc2cccnc12 [MY-3A, (2S,3S)-1-acryloyl-3-(4-bromophenyl)-N-(quinolin-8-yl)azetidine-2-carboxamide]
69.5	43.25	66	90.25	67	61.5		C=CC(=O)N1C[C@H](c2ccc(Br)cc2)[C@H]1C(=O)Nc1cccc2cccnc12 [MY-3B, (2S,3S)-1-acryloyl-3-(4-bromophenyl)-N-(quinolin-8-yl)azetidine-2-carboxamide]
						−15.75	CC#CC(=O)N1C[C@H](c2ccc(Br)cc2)[C@@H]1C(=O)Nc1cccc2cccnc12 [MY-45B, (2R,3S)-3-(4-bromophenyl)-1-(but-2-ynoyl)-N-(quinolin-8-yl)azetidine-2-carboxamide]
